The values below come from patent US20250368614A1, “COMPOUNDS AND METHODS FOR YAP/TEAD MODULATION AND INDICATIONS THEREFOR” (OPNA BIO SA, priority 2023, published 2025).

For this test, the system named is TEAD-dependent transcription (12XGTIIC TEAD response element luciferase reporter) in MSTO-211H cells. The test is described as follows: TEAD-dependent transcription cell-based luciferase reporter assay in MSTO-211H+12XGTIIC cells. Conditions: Homo sapiens; MSTO-211H+12XGTIIC reporter cells, 24 hours compound incubation, luminescence normalized to cell viability signal, geometric mean; read-out: MSTO-211H GMean IC50 (uM) Cell Assay Reporter Cell Variant: TEAD. The text has this:
Determine Inhibitor Activity Against TEAD-Dependent Transcription in a Cell-Based Reporter Assay
The human mesothelioma cell line MSTO-211H was stably transfected with a pGL4.21 plasmid containing a synthetic promoter with 12 copies of the GTIIC TEAD response element that drives the expression of a luciferase reporter gene^1 using Lipofectamine transfection reagent (Thermo Fisher). Transfected cells were selected using puromycin and single cell clones expressing this construct (referred to as MSTO-211H+12XGTIIC) were generated by limiting dilution. MSTO-211H cells was characterized by genetic alterations in key components of the Hippo pathway^2, resulting in up-regulation of YAP/TEAD-mediated transcription. […] To evaluate TEAD inhibitors, the MSTO-211H+12XGTIIC cell line was seeded in a 96-well plate in 50 μL of culture media at 1×10^4 cells per well and incubated at 37° C. overnight. Serial dilutions of compounds (in total volume of 50 μL of culture media) were added to the cells and incubated at 37° C. for 24 hours. Each plate included cells treated with DMSO as high controls and cells treated with 20 μM of the reference compound K-975 (a known TEAD inhibitor^3) as low controls. Cell viability was assayed by the addition of 25 μL of CellTiter-Fluor reagent (Promega) followed by a 30-minute incubation at 37° C. and quantification of the fluorescence signal (Ex400/Em505). Subsequently, luciferase expression was assayed by the addition of 25 μL of ONE-Glo reagent (Promega) followed by a 10-minute incubation at room temperature and quantification of the luminescence signal. The luminescence signal was normalized to the fluorescence signal to correct for any loss in cell viability over the 24-hour compound incubation period. The percentage of inhibition of normalized luminescence signal, indicative of compound-mediated inhibition of TEAD-dependent transcription, at individual compound concentrations relative to high and low controls was calculated. The data were analyzed by using nonlinear regression to generate IC50 values for individual compounds.
A general note: Reporter assays use an easily measured gene product as a stand-in for the process of interest.
As usually defined, the IC50 is the concentration at which inhibition is half-maximal. For `CS(=O)(=O)CCC(=O)N1CCc2c(cccc2Nc2ccc(C(F)(F)F)cc2)C1` [Compound O-0001, 3-(methylsulfonyl)-1-(5-((4-(trifluoromethyl)phenyl)amino)-3,4-dihydroisoquinolin-2(1H)-yl)propan-1-one], the IC50 lay in the range of 0.001 to 10 µM.
The same measure for `Cn1cncc1CC(=O)N1CCc2c(cccc2Nc2ccc(C(F)(F)F)cc2)C1` [Compound O-0002, 2-(1-methyl-1H-imidazol-5-yl)-1-(5-((4-(trifluoromethyl)phenyl)amino)-3,4-dihydroisoquinolin-2(1H)-yl)ethan-1-one]: 0.001 to 10 µM; for `O=C(Cc1cncs1)N1CCc2c(cccc2Nc2ccc(C(F)(F)F)cc2)C1` [Compound O-0003, 2-(thiazol-5-yl)-1-(5-((4-(trifluoromethyl)phenyl)amino)-3,4-dihydroisoquinolin-2(1H)-yl)ethan-1-one]: 0.001 to 10 µM; for `O=C(Cc1cnco1)N1CCc2c(cccc2Nc2ccc(C(F)(F)F)cc2)C1` [Compound O-0004, 2-(oxazol-5-yl)-1-(5-((4-(trifluoromethyl)phenyl)amino)-3,4-dihydroisoquinolin-2(1H)-yl)ethan-1-one]: 0.001 to 10 µM.
The same measure for `Cc1nc(CC(=O)N2CCc3c(cccc3Nc3ccc(C(F)(F)F)cc3)C2)co1` [Compound O-0005, 2-(2-methyloxazol-4-yl)-1-(5-((4-(trifluoromethyl)phenyl)amino)-3,4-dihydroisoquinolin-2(1H)-yl)ethan-1-one]: 0.001 to 10 µM; for `Nc1nc(C(=O)N2CCc3c(cccc3Nc3ccc(C(F)(F)F)cc3)C2)cs1` [Compound O-0006, (2-aminothiazol-4-yl)(5-((4-(trifluoromethyl)phenyl)amino)-3,4-dihydroisoquinolin-2(1H)-yl)methanone]: 0.001 to 10 µM; for `Nc1nc(CC(=O)N2CCc3c(cccc3Nc3ccc(C(F)(F)F)cc3)C2)cs1` [Compound O-0007, 2-(2-aminothiazol-4-yl)-1-(5-((4-(trifluoromethyl)phenyl)amino)-3,4-dihydroisoquinolin-2(1H)-yl)ethan-1-one]: 0.001 to 10 µM.
The same measure for `O=C(CCS(=O)(=O)C(F)(F)F)N1CCc2c(cccc2Nc2ccc(C(F)(F)F)cc2)C1` [Compound O-0010, 1-(5-((4-(trifluoromethyl)phenyl)amino)-3,4-dihydroisoquinolin-2(1H)-yl)-3-((trifluoromethyl)sulfonyl)propan-1-one]: 0.001 to 10 µM; for `CN(c1ccc(C(F)(F)F)cc1)c1cccc2c1CCN(C(=O)Cc1cn[nH]c1)C2` [Compound O-0011, 1-(5-(methyl(4-(trifluoromethyl)phenyl)amino)-3,4-dihydroisoquinolin-2(1H)-yl)-2-(1H-pyrazol-4-yl)ethan-1-one]: 0.001 to 10 µM.
As to `CN(c1ccc(C(F)(F)F)cc1)c1cccc2c1CCN(C(=O)c1cccc3[nH]ccc13)C2` [Compound O-0012, (1H-indol-4-yl)(5-(methyl(4-(trifluoromethyl)phenyl)amino)-3,4-dihydroisoquinolin-2(1H)-yl)methanone], the concentration for half-maximal inhibition (IC50) was in the range of 0.001 to 10 µM.
In the case of `CN(c1ccc(C(F)(F)F)cc1)c1cccc2c1CCN(C(=O)c1cccc(N)c1)C2` [Compound O-0013, (3-aminophenyl)(5-(methyl(4-(trifluoromethyl)phenyl)amino)-3,4-dihydroisoquinolin-2(1H)-yl)methanone], the concentration for half-maximal inhibition (IC50) fell in the range of 0.001 to 10 µM.
The same measure for `CN(c1ccc(C(F)(F)F)cc1)c1cccc2c1CCN(C(=O)c1cccc(N)n1)C2` [Compound O-0014, (6-aminopyridin-2-yl)(5-(methyl(4-(trifluoromethyl)phenyl)amino)-3,4-dihydroisoquinolin-2(1H)-yl)methanone]: 0.001 to 10 µM; for `CN(c1ccc(C(F)(F)F)cc1)c1cccc2c1CCN(C(=O)c1ccc(N)cc1)C2` [Compound O-0015, (4-aminophenyl)(5-(methyl(4-(trifluoromethyl)phenyl)amino)-3,4-dihydroisoquinolin-2(1H)-yl)methanone]: 0.001 to 10 µM.
